Earlier results in patent US10039775B2, “Preparation method for antitumor drug AP26113” (SUZHOU MIRACPHARMA TECHNOLOGY CO., LTD., priority 2015, dated 2018).

How the values were obtained:
ALK = ALK (Homo sapiens, UniProt Q9UM73); conditions: ratio versus crizotinib
[1] = test system: crizotinib resistant ALK mutation; conditions: nine identified crizotinib resistant ALK mutations
[2] = test system: ALK positive nonsmall cell lung cancer; conditions: clinical data; patients with ALK positive nonsmall cell lung cancer, including brain metastases patients

ALK, sequence (Q9UM73 19-1620): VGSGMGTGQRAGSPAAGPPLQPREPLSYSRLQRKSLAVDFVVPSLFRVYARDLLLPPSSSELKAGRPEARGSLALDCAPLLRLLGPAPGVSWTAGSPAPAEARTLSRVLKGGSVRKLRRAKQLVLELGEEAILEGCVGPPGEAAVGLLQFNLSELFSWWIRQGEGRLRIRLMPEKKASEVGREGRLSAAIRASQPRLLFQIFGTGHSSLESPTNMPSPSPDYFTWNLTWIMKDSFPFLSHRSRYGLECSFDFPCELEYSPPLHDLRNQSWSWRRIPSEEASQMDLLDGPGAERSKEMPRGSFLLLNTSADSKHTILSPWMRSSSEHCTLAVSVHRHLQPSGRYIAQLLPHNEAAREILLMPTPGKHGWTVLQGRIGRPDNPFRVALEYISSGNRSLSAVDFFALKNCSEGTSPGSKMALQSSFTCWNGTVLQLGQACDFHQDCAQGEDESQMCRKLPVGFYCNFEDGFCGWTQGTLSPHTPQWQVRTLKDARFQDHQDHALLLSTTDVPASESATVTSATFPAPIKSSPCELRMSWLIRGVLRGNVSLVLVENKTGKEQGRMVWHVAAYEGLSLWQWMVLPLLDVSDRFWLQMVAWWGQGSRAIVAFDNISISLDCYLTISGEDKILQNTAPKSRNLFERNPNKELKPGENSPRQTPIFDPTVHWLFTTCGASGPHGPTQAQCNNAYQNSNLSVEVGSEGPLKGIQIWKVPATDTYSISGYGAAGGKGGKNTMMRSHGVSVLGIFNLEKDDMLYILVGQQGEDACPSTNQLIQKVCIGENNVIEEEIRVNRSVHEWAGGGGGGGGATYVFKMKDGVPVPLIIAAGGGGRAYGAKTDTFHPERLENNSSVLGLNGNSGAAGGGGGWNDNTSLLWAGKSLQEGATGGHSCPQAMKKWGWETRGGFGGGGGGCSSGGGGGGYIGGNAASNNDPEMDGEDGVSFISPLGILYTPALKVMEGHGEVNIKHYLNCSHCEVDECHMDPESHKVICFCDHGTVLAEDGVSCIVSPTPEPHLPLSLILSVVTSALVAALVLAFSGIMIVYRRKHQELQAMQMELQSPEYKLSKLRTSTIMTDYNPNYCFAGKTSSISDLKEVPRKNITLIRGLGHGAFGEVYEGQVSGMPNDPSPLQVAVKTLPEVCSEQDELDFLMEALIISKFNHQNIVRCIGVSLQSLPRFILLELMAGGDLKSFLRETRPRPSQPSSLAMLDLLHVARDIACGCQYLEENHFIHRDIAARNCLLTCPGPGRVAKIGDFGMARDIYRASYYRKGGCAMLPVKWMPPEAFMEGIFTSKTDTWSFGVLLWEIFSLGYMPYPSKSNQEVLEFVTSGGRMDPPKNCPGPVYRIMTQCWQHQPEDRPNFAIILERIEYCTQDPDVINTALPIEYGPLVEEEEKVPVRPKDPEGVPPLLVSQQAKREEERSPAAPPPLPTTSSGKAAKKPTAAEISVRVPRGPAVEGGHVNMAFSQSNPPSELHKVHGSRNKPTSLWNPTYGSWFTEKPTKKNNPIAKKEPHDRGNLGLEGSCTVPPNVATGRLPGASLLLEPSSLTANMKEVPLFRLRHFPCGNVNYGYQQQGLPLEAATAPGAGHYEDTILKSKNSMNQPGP

inhibitory activity to ALK relative to the inhibitor activity of crizotinib to ALK (ALK): about 10 times
SMILES: COc1cc(N2CCC(N(C)C)CC2)ccc1Nc1ncc(Cl)c(Nc2ccccc2P(C)(C)=O)n1 [AP26113, 5-chloro-N2-[4-[4-(dimethylamino)-1-piperidyl]-2-methoxyphenyl]-N4-[2-(dimethyl phosphitylate)phenyl]-2,4-diaminopyrimidine]
inhibition of all nine identified crizotinib resistant ALK mutation [1]: can be inhibited
anti-tumor activity on patients [2]: continuous anti-tumor activity
